Values of other authors in US20240390444A1, “COMPOSITIONS AND METHODS LOWERING GLYCEMIC RESPONSE TO IMPROVE SLEEP QUALITY AND/OR SUBSEQUENT BEHAVIOURAL OUTCOMES” (SOCIETE DES PRODUITS NESTLE S.A., priority 2021, published 2024).

Details: 12.5 mg DNJ in capsule, co-ingestion with maltodextrin

## OC[C@H]1NC[C@H](O)[C@@H](O)[C@@H]1O [DNJ, 1-deoxynojirimycin]
  reduction of PPGR: 14%
